Measured values as given in patent US20230357253A1, “AGONISTS OF STIMULATOR OF INTERFERON GENES STING” (THE SCRIPPS RESEARCH INSTITUTE, priority 2020, published 2023).

Key:
[1] = biological target: human STING protein (Homo sapiens (Human), UniProt Q86WV6); assay: WT STING binding assay (HTRF, competition with labeled 2′3′cGAMP); conditions: recombinant 6×His-tagged human STING, three hours at room temperature
Protocol: WT STING binding assay (Cisbio, Catalog #64BDSTGPEH). […] Upon proximity of the two dyes, the excitation of the donor by the flash lamp on the PHERAstar FSX plate reader triggers a Fluorescence Resonance Energy Transfer (FRET) towards the acceptor, which in turn fluoresces at 665 nm. To assess the ability of the synthetic small molecule STING ligands to bind to human STING, a competitive assay format was applied. A 10-point titration of each of the synthetic ligands in 5 uL were transferred into a 384 well plate, followed by 20 uL of assay buffer containing the 6×His-tagged human STING protein and labeled 2′3′cGAMP ligand and incubated for three hours at room temperature. The raw values obtained from the PHERAstar were used to calculate the reported IC50 values (the signal is inversely proportional to the binding of the synthetic ligand) through curve fitting in Genedata. The percent inhibition was calculated based upon the maximal amount of binding by synthetic compound versus the maximum binding of unlabeled 2′3′ cGAMP which was used as a control in each assay.

[2] = test system: THP-1 Lucia ISG cells; assay: ISRE-luciferase assay (ISG-LUC activation); type: cell-based; conditions: Homo sapiens, THP1-Lucia ISG, 24 hours, luciferase reporter
How it was run: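 THP-1 Lucia ISG cells at 5×10^5 cells/ml in 2% FBS medium were treated with test article or DMSO vehicle for 24 h. Secreted luciferase was read by luminescence and normalized to vehicle, reported as RLU.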

Chain of human STING protein (Q86WV6 whole entry): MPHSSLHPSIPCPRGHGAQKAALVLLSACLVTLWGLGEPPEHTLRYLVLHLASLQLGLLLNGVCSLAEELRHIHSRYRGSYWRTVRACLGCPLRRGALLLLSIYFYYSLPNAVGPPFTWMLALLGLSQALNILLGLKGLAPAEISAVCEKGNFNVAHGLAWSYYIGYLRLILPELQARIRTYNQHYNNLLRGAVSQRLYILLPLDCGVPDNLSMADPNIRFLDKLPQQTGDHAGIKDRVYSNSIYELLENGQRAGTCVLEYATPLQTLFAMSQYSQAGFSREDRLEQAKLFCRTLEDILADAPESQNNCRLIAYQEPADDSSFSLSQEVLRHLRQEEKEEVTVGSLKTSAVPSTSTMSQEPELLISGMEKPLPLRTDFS

IC50 [1]	EC50 [2]	Compound
10 to 100 nM	> 5000 nM	O=C(Nc1cc(OCCCCOc2ccc(C(=O)O)c(NC(=O)c3ccc4nnnn4n3)c2)c(F)cc1C(=O)O)c1ccc(-n2ccnc2)nn1 [Compound 57]
100 to 1000 nM	500 to 5000 nM	COc1cc(C(=O)O)c(NC(=O)c2ccc(-n3ccnc3)nn2)cc1OCCCCOc1cc(NC(=O)c2ccc(-n3ccnc3)nn2)c(C(=O)O)cc1F [Compound 58]
100 to 1000 nM	> 5000 nM	COC(=O)c1ccc(OCCCCOc2cc(NC(=O)c3ccc4nnnn4n3)c(C(=O)O)cc2F)cc1NC(=O)c1ccc(-n2ccnc2)nn1 [Compound 62]
10 to 100 nM	> 5000 nM	O=C(Nc1cc(OCCCCOc2cnc(C(=O)O)c(NC(=O)c3ccc(-n4ccnc4)nn3)c2)c(F)cc1C(=O)O)c1ccc2nnnn2n1 [Compound 64]
10 to 100 nM	500 to 5000 nM	O=C(Nc1cc(CCCc2cnc(C(=O)O)c(NC(=O)c3ccc(-n4ccnc4)nn3)c2)c(F)cc1C(=O)O)c1ccc(-n2ccnc2)nn1 [Compound 65]
10 to 100 nM	> 5000 nM	O=C(Nc1ccc(CCCc2cc(NC(=O)c3ccc(-n4ccnc4)nn3)c(C(=O)O)cc2F)cc1C(=O)O)c1ccc(-n2ccnc2)nn1 [Compound 71]
10 to 100 nM	500 to 5000 nM	O=C(Nc1cc(OCCCCOc2cc(NC(=O)c3ccc4nnnn4n3)c(C(=O)O)cc2Cl)ccc1C(=O)O)c1ccc(-n2ccnc2)nn1 [Compound 72]
10 to 100 nM	> 5000 nM	O=C(Nc1cc(OCCCCOc2cc(NC(=O)c3ccc4nnnn4n3)c(C(=O)O)cc2F)ccc1C(=O)O)c1ccc(-n2ccnc2)nn1 [Compound 74]
100 to 1000 nM	500 to 5000 nM	O=C(Nc1cc(CCCc2ccc(C(=O)O)c(NC(=O)c3ccc4nnnn4n3)c2)c(F)cc1C(=O)O)c1ccc(-n2ccnc2)nn1 [Compound 75]
10 to 100 nM	50 to 500 nM	COC(=O)c1cc(F)c(CCCc2cc(NC(=O)c3ccc4nnnn4n3)c(C(=O)O)cc2F)cc1NC(=O)c1ccc(-n2ccnc2)nn1 [Compound 76]
10 to 100 nM	50 to 500 nM	O=C(Nc1cc(CCCc2cc(NC(=O)c3ccc4nnnn4n3)c(C(=O)O)cc2Cl)ccc1C(=O)O)c1ccc(-n2ccnc2)nn1 [Compound 77]
100 to 1000 nM	50 to 500 nM	COC(=O)c1ccc(CCCc2cc(C(=O)O)c(NC(=O)c3ccc(-n4ccnc4)nn3)cc2F)cc1NC(=O)c1ccc(-n2ccnc2)nn1 [Compound 79]
10 to 100 nM	500 to 5000 nM	COC(=O)c1nc(Cl)c(CCCc2cnc(C(=O)O)c(NC(=O)c3ccc(-n4ccnc4)nn3)c2)cc1NC(=O)c1ccc(-n2ccnc2)nn1 [Compound 80]
100 to 1000 nM	> 5000 nM	O=C(Nc1cc(CCCc2cnc(C(=O)O)c(NC(=O)c3ccc(-n4ccnc4)nn3)c2)c(F)cc1C(=O)O)c1ccc2nnnn2n1 [Compound 82]
100 to 1000 nM	> 5000 nM	O=C(Nc1cc(OCCCCOc2cnc(C(=O)O)c(NC(=O)c3ccc4nnnn4n3)c2)c(F)cc1C(=O)O)c1ccc(-n2ccnc2)nn1 [Compound 83]
100 to 1000 nM	500 to 5000 nM	COc1cc(NC(=O)c2ccc3nnnn3n2)c(C(=O)O)cc1CCCc1ccc(C(=O)O)c(NC(=O)c2ccc(-n3ccnc3)nn2)c1 [Compound 84]
100 to 1000 nM	> 5000 nM	COc1cc(C(=O)O)c(NC(=O)c2ccc3nnnn3n2)cc1CCCc1cnc(C(=O)O)c(NC(=O)c2ccc(-n3ccnc3)nn2)c1 [Compound 85]
10 to 100 nM	50 to 500 nM	COc1cc(C(=O)O)c(NC(=O)c2ccc3nnnn3n2)cc1CCCc1ccc(C(=O)O)c(NC(=O)c2ccc(-n3ccnc3)nn2)c1 [Compound 86]
10 to 100 nM	50 to 500 nM	O=C(Nc1cc(CCCc2cc(NC(=O)c3ccc4nnnn4n3)c(C(=O)O)nc2Cl)ccc1C(=O)O)c1ccc(-n2ccnc2)nn1 [Compound 87]

IC50 [1]	EC50 [2]	Compound
100 to 1000 nM	500 to 5000 nM	COC(=O)c1ccc(CCCc2cc(NC(=O)c3ccc4nnnn4n3)c(C(=O)O)cc2F)cc1NC(=O)c1ccc(-n2ccnc2)nn1 [Compound 88]
10 to 100 nM	50 to 500 nM	O=C(Nc1cc(CCCc2cc(NC(=O)c3ccc4nnnn4n3)c(C(=O)O)cc2F)ccc1C(=O)O)c1ccc(-n2ccnc2)nn1 [Compound 89]
100 to 1000 nM	> 5000 nM	COc1cc(C(=O)O)c(NC(=O)c2ccc3nnnn3n2)cc1OCCc1ccc(C(=O)O)c(NC(=O)c2ccc(-n3ccnc3)nn2)c1 [Compound 91]
10 to 100 nM	50 to 500 nM	O=C(Nc1cc(CCOc2cc(NC(=O)c3ccc4nnnn4n3)c(C(=O)O)cc2F)ccc1C(=O)O)c1ccc(-n2ccnc2)nn1 [Compound 92]
10 to 100 nM	50 to 500 nM	O=C(Nc1cc(CCCc2cc(C(=O)O)c(NC(=O)c3ccc4nnnn4n3)cc2Cl)ccc1C(=O)O)c1ccc(-n2ccnc2)nn1 [Compound 93]
10 to 100 nM	500 to 5000 nM	COc1cc(C(=O)O)c(NC(=O)c2ccc3nnnn3n2)cc1OCCCCOc1cc(NC(=O)c2ccc(-n3ccnc3)nn2)c(C(=O)O)cc1F [Compound 95]
10 to 100 nM	50 to 500 nM	COc1cc(NC(=O)c2ccc3nnnn3n2)c(C(=O)O)cc1CCCc1cc(NC(=O)c2ccc(-n3ccnc3)nn2)c(C(=O)O)cc1F [Compound 96]
100 to 1000 nM	500 to 5000 nM	O=C(Nc1cc(OCCc2cc(NC(=O)c3ccc4nnnn4n3)c(C(=O)O)cc2F)ccc1C(=O)O)c1ccc(-n2ccnc2)nn1 [Compound 97]
10 to 100 nM	50 to 500 nM	O=C(Nc1cc(CCCCc2cc(NC(=O)c3ccc4nnnn4n3)c(C(=O)O)cc2F)c(F)cc1C(=O)O)c1ccc(-n2ccnc2)nn1 [Compound 98]
100 to 1000 nM	500 to 5000 nM	COc1cc(C(=O)O)c(NC(=O)c2ccc(-n3ccnc3)nn2)cc1CCOc1cc(NC(=O)c2ccc3nnnn3n2)c(C(=O)O)cc1F [Compound 99]
100 to 1000 nM	50 to 500 nM	COc1cc(C(=O)O)c(NC(=O)c2ccc3nnnn3n2)cc1CCOc1cc(NC(=O)c2ccc(-n3ccnc3)nn2)c(C(=O)O)cc1F [Compound 100]
100 to 1000 nM	50 to 500 nM	COc1cc(NC(=O)c2ccc(-n3ccnc3)nn2)c(C(=O)O)cc1CCCc1cc(NC(=O)c2ccc3nnnn3n2)c(C(=O)O)cc1F [Compound 101]
100 to 1000 nM	500 to 5000 nM	COc1cc(C(=O)O)c(NC(=O)c2ccc3nnnn3n2)cc1OCCc1cc(NC(=O)c2ccc(-n3ccnc3)nn2)c(C(=O)O)cc1F [Compound 102]
100 to 1000 nM	500 to 5000 nM	COc1cc(NC(=O)c2ccc3nnnn3n2)c(C(=O)O)cc1CCOc1cc(NC(=O)c2ccc(-n3ccnc3)nn2)c(C(=O)O)cc1F [Compound 103]
10 to 100 nM	50 to 500 nM	O=C(Nc1cc(CCOc2cc(NC(=O)c3ccc4nnnn4n3)c(C(=O)O)cc2Cl)ccc1C(=O)O)c1ccc(-n2ccnc2)nn1 [Compound 104]
10 to 100 nM	500 to 5000 nM	O=C(Nc1cc(CCCc2ccc(C(=O)O)c(NC(=O)c3ccc4nnnn4n3)c2)c(Cl)cc1C(=O)O)c1ccc(-n2ccnc2)nn1 [Compound 105]
10 to 100 nM	50 to 500 nM	COc1cc(C(=O)O)c(NC(=O)c2ccc(-n3ccnc3)nn2)cc1CCCc1cc(NC(=O)c2ccc3nnnn3n2)c(C(=O)O)cc1F [Compound 107]
100 to 1000 nM	500 to 5000 nM	COc1cc(C(=O)O)c(NC(=O)c2ccc(-n3ccnc3)nn2)cc1OCCc1cc(NC(=O)c2ccc3nnnn3n2)c(C(=O)O)cc1Cl [Compound 109]
